Measured values taken from ChEMBL document CHEMBL1201862, “PubChem BioAssay data set” (2004).
Calls of active or inactive are those of the source.

Columns and labels:
cells [1] = format: functional, cell-based
cells [2] = format: functional, cell-based; remark: listed apart in the source
[3] = biological target: T1, Beta-2 adrenergic receptor (Homo sapiens, UniProt P07550); assay: beta2AR agonists driving receptor internalization, dose response, cell-based, FAP fluorogen, flow cytometry, cherry pick 1 (AID 588763); format: functional
T1 sequence (P07550 whole entry): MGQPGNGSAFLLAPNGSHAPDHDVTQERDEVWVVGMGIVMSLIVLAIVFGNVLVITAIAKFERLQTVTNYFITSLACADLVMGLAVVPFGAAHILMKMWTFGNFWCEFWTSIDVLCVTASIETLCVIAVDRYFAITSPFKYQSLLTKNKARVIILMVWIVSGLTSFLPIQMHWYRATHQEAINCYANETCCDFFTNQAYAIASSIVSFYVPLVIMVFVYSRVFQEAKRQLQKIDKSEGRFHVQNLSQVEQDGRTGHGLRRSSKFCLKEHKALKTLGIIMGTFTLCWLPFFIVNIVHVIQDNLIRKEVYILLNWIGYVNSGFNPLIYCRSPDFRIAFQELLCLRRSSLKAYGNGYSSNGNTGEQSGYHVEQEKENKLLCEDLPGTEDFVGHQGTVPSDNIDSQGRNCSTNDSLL

[4] = biological target: T1, Beta-2 adrenergic receptor; assay: Dose response for HTS for Beta-2AR agonists via FAP method from Powderset1.; format: functional
Beta-lactamase [5] = biological target: T2, Beta-lactamase (Pseudomonas aeruginosa, UniProt Q79MP6); assay: […] counterscreen for selective VIM-2 inhibitors: dose response biochemical high throughput screening assay to identify inhibitors of IMP-1 metallo-beta-lactamase.
T2 sequence (Q79MP6 whole entry): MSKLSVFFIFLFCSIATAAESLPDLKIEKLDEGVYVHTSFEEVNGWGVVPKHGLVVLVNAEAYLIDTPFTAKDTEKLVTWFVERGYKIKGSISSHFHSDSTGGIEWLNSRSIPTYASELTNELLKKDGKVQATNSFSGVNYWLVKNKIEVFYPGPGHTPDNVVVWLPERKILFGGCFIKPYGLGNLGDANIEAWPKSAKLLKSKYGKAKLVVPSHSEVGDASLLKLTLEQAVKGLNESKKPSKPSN

Beta-lactamase [6] = biological target: Beta-lactamase (Salmonella choleraesuis (strain SC-B67), UniProt Q5J463); assay: Epi-absorbance-based counterscreen for selective VIM-2 inhibitors: dose response biochemical high throughput screening assay to identify inhibitors of TEM-1 serine-beta-lactamase.
Chain of Beta-lactamase (Salmonella choleraesuis (strain SC-B67), UniProt Q5J463) (Q5J463 whole entry): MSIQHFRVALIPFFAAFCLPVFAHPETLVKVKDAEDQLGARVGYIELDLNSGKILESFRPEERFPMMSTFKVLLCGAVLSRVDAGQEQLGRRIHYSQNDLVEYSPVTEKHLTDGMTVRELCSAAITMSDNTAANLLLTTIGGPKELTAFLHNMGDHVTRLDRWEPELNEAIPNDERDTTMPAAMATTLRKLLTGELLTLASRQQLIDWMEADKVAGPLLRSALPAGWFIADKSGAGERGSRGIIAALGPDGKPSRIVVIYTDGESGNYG

Beta-lactamase [7] = biological target: T2, Beta-lactamase; assay: IMP-1 metallo-beta-lactamase inhibitors, dose response, selectivity assay for VIM-2 inhibitor project, biochemical, epi-absorbance (AID 1920)
H4 = assay: Luminescence Cell-Based Dose Response HTS to Identify Activators of 5'UTR Stem-Loop Driven Prion Protein mRNA Translation in H4 Neuroglioblastoma Cells. [Related pubchem assays: 1829 (Project Summary), 1814 (Primary HTS)]; format: functional; conditions: Homo sapiens
[8] = Counterscreen for activators of the function of SWI/SNF related, matrix associated, actin dependent regulator of chromatin, subfamily a, member 2 (SMARCA2, BRM): Luminescence-based cell-based high throughput dose response assay to identify non-selective compounds using the VP16 reporter assay.; format: functional
[9] = Luminescence Cell-Based Dose Retest to Confirm Inhibitors of Cancer Stem Cells. [Related pubchem assays (depositor defined):AID2717, AID2721]; format: functional; conditions: Homo sapiens
Jurkat = assay: SAR Analysis of small molecule inhibitors of T-cell specific antigen receptor-induced NF-kB activation in a Jurkat cell line using a luminescence assay - Set 2. [Related pubchem assays (depositor defined):AID435003, AID435012, AID465]; format: functional, cell-based; conditions: Homo sapiens
[10] = Luminescence Cell-Based Dose Confirmation HTS to Identify Activators of 5'UTR Stem-Loop Driven Alpha-Synuclein mRNA Translation in H4 Neuroglioblastoma Cells. [Related pubchem assays: 1829 (Project Summary), 1814 (Primary HTS)]; format: functional
HEK293 [11] = assay: SAR Analysis of small molecule inhibitors of T-cell specific antigen receptor-induced NF-kB activation in a HEK-293T cell line using a luminescence assay - Set 2. [Related pubchem assays (depositor defined):AID435003, AID435012, AID489026]; format: functional, cell-based; conditions: Homo sapiens
HEK293 [12] = assay: cytotoxicity in HEK293T NF-kB-Luc cells, SAR follow-up, cytotoxicity control for NF-kB activator project, cell-based, resazurin fluorescence (AID 493251); format: functional; conditions: Homo sapiens
[13] = Luminescence Cell-Based Dose Response HTS to Identify Activators of Luciferase Translation or Activity in H4 […] Cells. [Related pubchem assays: 1829 (Project Summary), 1814 (Primary HTS)]; format: functional
[14] = biological target: SWI/SNF-related matrix-associated actin-dependent regulator of chromatin subfamily A member 2 (Homo sapiens, UniProt P51531); assay: Luminescence-based cell-based high throughput dose response assay to identify activators of the function of SWI/SNF related, matrix associated, actin dependent regulator of chromatin, subfamily a, member 2 (SMARCA2, BRM).; format: functional
Chain of SWI/SNF-related matrix-associated actin-dependent regulator of chromatin subfamily A member 2 (P51531 whole entry): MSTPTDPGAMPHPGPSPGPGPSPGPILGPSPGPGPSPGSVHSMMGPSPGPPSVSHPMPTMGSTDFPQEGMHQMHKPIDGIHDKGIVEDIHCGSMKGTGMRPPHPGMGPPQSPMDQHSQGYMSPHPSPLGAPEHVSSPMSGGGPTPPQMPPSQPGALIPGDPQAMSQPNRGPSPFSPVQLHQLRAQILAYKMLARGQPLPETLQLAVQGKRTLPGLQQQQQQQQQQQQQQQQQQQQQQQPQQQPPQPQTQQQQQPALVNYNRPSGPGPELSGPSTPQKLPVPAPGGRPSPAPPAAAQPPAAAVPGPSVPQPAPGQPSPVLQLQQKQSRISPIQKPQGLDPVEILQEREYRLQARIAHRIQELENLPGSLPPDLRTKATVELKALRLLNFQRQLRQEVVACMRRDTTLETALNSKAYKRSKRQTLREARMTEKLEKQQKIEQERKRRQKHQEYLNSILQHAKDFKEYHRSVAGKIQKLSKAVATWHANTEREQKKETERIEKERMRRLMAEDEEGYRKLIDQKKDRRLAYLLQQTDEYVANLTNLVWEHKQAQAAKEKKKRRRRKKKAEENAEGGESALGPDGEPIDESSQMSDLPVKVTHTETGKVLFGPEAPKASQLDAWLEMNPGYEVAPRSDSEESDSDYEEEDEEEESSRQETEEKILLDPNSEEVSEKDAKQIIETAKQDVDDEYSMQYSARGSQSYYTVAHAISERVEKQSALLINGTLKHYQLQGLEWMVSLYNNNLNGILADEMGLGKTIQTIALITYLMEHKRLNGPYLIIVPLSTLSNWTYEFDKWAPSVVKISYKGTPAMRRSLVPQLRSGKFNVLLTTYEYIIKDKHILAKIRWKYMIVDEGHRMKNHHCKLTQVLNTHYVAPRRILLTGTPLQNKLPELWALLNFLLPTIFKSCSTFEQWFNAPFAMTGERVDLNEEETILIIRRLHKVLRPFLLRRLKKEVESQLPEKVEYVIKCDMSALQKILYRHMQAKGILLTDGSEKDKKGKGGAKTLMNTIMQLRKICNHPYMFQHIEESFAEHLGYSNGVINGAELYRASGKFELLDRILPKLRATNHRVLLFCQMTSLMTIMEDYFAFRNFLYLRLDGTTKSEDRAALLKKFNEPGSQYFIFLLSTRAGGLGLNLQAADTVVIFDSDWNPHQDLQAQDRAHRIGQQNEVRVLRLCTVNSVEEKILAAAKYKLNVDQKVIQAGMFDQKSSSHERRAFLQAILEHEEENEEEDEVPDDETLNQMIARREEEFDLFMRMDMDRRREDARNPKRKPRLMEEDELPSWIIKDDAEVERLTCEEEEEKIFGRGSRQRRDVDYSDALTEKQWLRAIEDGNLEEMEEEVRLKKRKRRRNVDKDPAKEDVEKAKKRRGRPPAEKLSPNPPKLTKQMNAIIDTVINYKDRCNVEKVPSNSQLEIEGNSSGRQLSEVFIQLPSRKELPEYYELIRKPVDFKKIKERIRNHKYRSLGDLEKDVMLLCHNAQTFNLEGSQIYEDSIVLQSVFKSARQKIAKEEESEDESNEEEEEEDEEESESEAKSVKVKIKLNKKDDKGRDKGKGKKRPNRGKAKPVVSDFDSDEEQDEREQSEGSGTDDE

Vero [15] = assay: cells; format: functional; conditions: Chlorocebus sabaeus
Vero [16] = assay: cells; format: functional, cell-based; conditions: Chlorocebus sabaeus
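Wherever AC50 is given: cells exposed to compound for roughly 70 hours or longer before luminescence read.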

With `O=C(c1ccc(OC2CCN(Cc3ccc(F)cc3)CC2)cc1)N1CCCC1` the EC50 (cells [1]) was > 350 µM (not active), the EC50 (cells [2]) was > 350 µM (not active) and the EC50 [3] was 1.6 µM (active). The EC50 [4] was 5.28 µM (active).
With `COCC(=O)Nc1nnc(SCC(=O)NCc2cccs2)s1` the IC50 (Beta-lactamase [5]) was > 59.6 µM (inactive), the IC50 (Beta-lactamase [6]) was > 59.6 µM (inactive) and the IC50 (Beta-lactamase [7]) was > 59.6 µM (inactive).
In the case of `CC(=O)c1ccc(NC(=O)c2ccc([N+](=O)[O-])o2)cc1`, the EC50 (H4) is reported as > 120 µM (not active), the EC50 [8] is reported as > 91.1 µM (inactive) and the AC50 [9] is reported as 4.95 µM (active). For the same molecule, the IC50 (Jurkat) was 35.2 µM (inactive), the EC50 [10] was > 120 µM (not active) and the IC50 (HEK293 [11]) was 38.9 µM (inactive). For the same molecule, the IC50 (HEK293 [12]) was 51.8 µM (inactive), the EC50 [13] was > 120 µM (not active) and the EC50 [14] was > 91.1 µM (inactive). The CC50 (Vero [15]) was 14.3 µM (active) and the IC50 (Vero [16]) was > 25 µM (active).
